Reference: patent US8889370B2, “Method of determining inhibitors of coagulation” (Siemens Healthcare Diagnostics Products GmbH, priority 2010, dated 2014)
Where two headings read alike, the source gives them in different places.

Biological target: T1, factor Xa (Homo sapiens, UniProt P00742)
T1 construct: an F Xa reagent consisting of a lyophilized plasma fraction containing factor Xa; purchased Siemens Healthcare Diagnostics (Berichrom heparin assay, F Xa reagent); host or cells: plasma fraction
Test: Determination of the F Xa binding constant (Ki) of peptide aldehyde ligands, chromogenic assay with Berichrom heparin assay reagents, Dixon plot
Format: biochemical
Description: The kinetic data of the peptide aldehyde ligands were determined in chromogenic assay formats by measuring the rate of hydrolysis of chromogenic peptide substrates which compete with the peptide aldehyde ligands for binding to the active site of the particular enzyme, at various substrate concentrations and peptide aldehyde-ligand concentrations. The binding constant (Ki) was determined by a known method (Dixon, M., 1953, Biochem J, 55, 170-171).
The F Xa binding constant was determined using the reagents of the Berichrom® heparin assay from Siemens Healthcare Diagnostics. The Berichrom® heparin assay consists of: an F Xa reagent consisting of a lyophilized plasma fraction containing factor Xa, and additives such as Tris, NaCl, EDTA and preservatives, a chromogenic substrate reagent (Z-D-Leu-Gly-Arg-ANBA-methyl-amide), a dilution reagent for reconstitution, and a dextran sulfate reagent consisting of lyophilized dextran sulfate.
After reconstitution in 10 ml of dilution reagent, the dextran sulfate concentration is 0.02 g/l. The F Xa reagent is reconstituted with the reconstituted dextran sulfate reagent. The substrate reagent, after constitution with 2 ml of deionized water, contains 4 mmol/l Z-D-Leu-Gly-Arg-ANBA-methyl-amide. Dilutions of the substrate reagent were prepared with deionized water. The peptide aldehyde ligands prepared according to example 1 were dissolved in water and used as sample. The assays were carried out automatically in a BCS® XP coagulation analyzer (Siemens Healthcare Diagnostics, Marburg, Germany).
A reaction mix was mixed together as follows:
15 μl of sample (peptide aldehyde ligand B-r-G-R—H or B-f-P—R—H), […]
30 μl of substrate reagent (Z-D-Leu-Gly-Arg-ANBA-methyl-amide).
The reaction rate in mE/min was determined on the basis of the increase in optical density of the reaction mix at a wavelength of 405 nm. For this, the optical density of the reaction mixes was determined in a time interval from 10 to 70 seconds.

T1 sequence (P00742 235-488 limits assumed): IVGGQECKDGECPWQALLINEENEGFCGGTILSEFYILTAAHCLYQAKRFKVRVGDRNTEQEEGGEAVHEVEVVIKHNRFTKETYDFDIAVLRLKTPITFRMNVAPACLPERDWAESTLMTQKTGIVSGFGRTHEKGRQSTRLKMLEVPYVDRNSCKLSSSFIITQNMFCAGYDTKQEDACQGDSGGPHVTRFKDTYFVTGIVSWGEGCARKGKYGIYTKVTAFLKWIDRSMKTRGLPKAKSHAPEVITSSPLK
T1 sequence (P00742 41-179 partner limits assumed): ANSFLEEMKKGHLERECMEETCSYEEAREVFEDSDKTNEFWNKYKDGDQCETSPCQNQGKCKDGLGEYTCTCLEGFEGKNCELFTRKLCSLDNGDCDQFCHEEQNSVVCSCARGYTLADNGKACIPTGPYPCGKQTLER

## N=C(N)NCCC[C@@H](C=O)NC(=O)[C@@H]1CCCN1C(=O)[C@@H](Cc1ccccc1)NC(=O)CCC(=O)NCCCOCCOCCOCCCNC(=O)CCCC[C@@H]1SC[C@@H]2NC(=O)N[C@@H]21 [B-f-P-R-H, biotinyl-Ttds-D-Phe-Pro-Arg-H]
CB-f-P-R-H 0.01019 μM, Csubstrate = 0.5 mM
  1/Reaction rate: 5.617 min/E
CB-f-P-R-H 0.01019 μM, Csubstrate = 2 mM
  1/Reaction rate: 1.457 min/E
CB-f-P-R-H 0.01019 μM, Csubstrate = 4 mM
  1/Reaction rate: 0.8217 min/E
CB-f-P-R-H 0.02038 μM, Csubstrate = 0.5 mM
  1/Reaction rate: 5.565 min/E
CB-f-P-R-H 0.02038 μM, Csubstrate = 2 mM
  1/Reaction rate: 1.457 min/E
CB-f-P-R-H 0.02038 μM, Csubstrate = 4 mM
  1/Reaction rate: 0.8192 min/E
CB-f-P-R-H 0.04076 μM, Csubstrate = 0.5 mM
  1/Reaction rate: 5.569 min/E
CB-f-P-R-H 0.04076 μM, Csubstrate = 2 mM
  1/Reaction rate: 1.454 min/E
CB-f-P-R-H 0.04076 μM, Csubstrate = 4 mM
  1/Reaction rate: 0.8174 min/E
CB-f-P-R-H 0.08152 μM, Csubstrate = 0.5 mM
  1/Reaction rate: 5.572 min/E
CB-f-P-R-H 0.08152 μM, Csubstrate = 2 mM
  1/Reaction rate: 1.467 min/E
CB-f-P-R-H 0.08152 μM, Csubstrate = 4 mM
  1/Reaction rate: 0.8218 min/E
CB-f-P-R-H 0.10190 μM, Csubstrate = 0.5 mM
  1/Reaction rate: 5.619 min/E
CB-f-P-R-H 0.10190 μM, Csubstrate = 2 mM
  1/Reaction rate: 1.463 min/E
CB-f-P-R-H 0.10190 μM, Csubstrate = 4 mM
  1/Reaction rate: 0.8156 min/E
CB-f-P-R-H 0.16304 μM, Csubstrate = 0.5 mM
  1/Reaction rate: 5.675 min/E
CB-f-P-R-H 0.16304 μM, Csubstrate = 2 mM
  1/Reaction rate: 1.485 min/E
CB-f-P-R-H 0.16304 μM, Csubstrate = 4 mM
  1/Reaction rate: 0.8333 min/E
CB-f-P-R-H 0.20380 μM, Csubstrate = 0.5 mM
  1/Reaction rate: 5.619 min/E
CB-f-P-R-H 0.20380 μM, Csubstrate = 2 mM
  1/Reaction rate: 1.473 min/E
CB-f-P-R-H 0.20380 μM, Csubstrate = 4 mM
  1/Reaction rate: 0.8238 min/E
CB-f-P-R-H 0.32609 μM, Csubstrate = 0.5 mM
  1/Reaction rate: 5.69 min/E
CB-f-P-R-H 0.32609 μM, Csubstrate = 2 mM
  1/Reaction rate: 1.486 min/E
CB-f-P-R-H 0.32609 μM, Csubstrate = 4 mM
  1/Reaction rate: 0.832 min/E
CB-f-P-R-H 0.40761 μM, Csubstrate = 0.5 mM
  1/Reaction rate: 5.694 min/E
CB-f-P-R-H 0.40761 μM, Csubstrate = 2 mM
  1/Reaction rate: 1.489 min/E
CB-f-P-R-H 0.40761 μM, Csubstrate = 4 mM
  1/Reaction rate: 0.8338 min/E
CB-f-P-R-H 0.65217 μM, Csubstrate = 0.5 mM
  1/Reaction rate: 5.785 min/E
CB-f-P-R-H 0.65217 μM, Csubstrate = 2 mM
  1/Reaction rate: 1.51 min/E
CB-f-P-R-H 0.65217 μM, Csubstrate = 4 mM
  1/Reaction rate: 0.8514 min/E
CB-f-P-R-H 0.81522 μM, Csubstrate = 0.5 mM
  1/Reaction rate: 5.868 min/E
CB-f-P-R-H 0.81522 μM, Csubstrate = 2 mM
  1/Reaction rate: 1.521 min/E
CB-f-P-R-H 0.81522 μM, Csubstrate = 4 mM
  1/Reaction rate: 0.8494 min/E
CB-f-P-R-H 1.30435 μM, Csubstrate = 0.5 mM
  1/Reaction rate: 5.959 min/E
CB-f-P-R-H 1.30435 μM, Csubstrate = 2 mM
  1/Reaction rate: 1.562 min/E
CB-f-P-R-H 1.30435 μM, Csubstrate = 4 mM
  1/Reaction rate: 0.8735 min/E
CB-f-P-R-H 1.63043 μM, Csubstrate = 0.5 mM
  1/Reaction rate: 6.263 min/E
CB-f-P-R-H 1.63043 μM, Csubstrate = 2 mM
  1/Reaction rate: 1.591 min/E
CB-f-P-R-H 1.63043 μM, Csubstrate = 4 mM
  1/Reaction rate: 0.9021 min/E
CB-f-P-R-H 2.60870 μM, Csubstrate = 0.5 mM
  1/Reaction rate: 6.441 min/E
CB-f-P-R-H 2.60870 μM, Csubstrate = 2 mM
  1/Reaction rate: 1.672 min/E
CB-f-P-R-H 2.60870 μM, Csubstrate = 4 mM
  1/Reaction rate: 0.9317 min/E
CB-f-P-R-H 3.26087 μM, Csubstrate = 0.5 mM
  1/Reaction rate: 6.663 min/E
CB-f-P-R-H 3.26087 μM, Csubstrate = 2 mM
  1/Reaction rate: 1.715 min/E
CB-f-P-R-H 3.26087 μM, Csubstrate = 4 mM
  1/Reaction rate: 0.9448 min/E
CB-f-P-R-H 4.89130 μM, Csubstrate = 0.5 mM
  1/Reaction rate: 7.084 min/E
CB-f-P-R-H 4.89130 μM, Csubstrate = 2 mM
  1/Reaction rate: 1.84 min/E
CB-f-P-R-H 4.89130 μM, Csubstrate = 4 mM
  1/Reaction rate: 1.026 min/E
CB-f-P-R-H 6.52174 μM, Csubstrate = 0.5 mM
  1/Reaction rate: 7.613 min/E
CB-f-P-R-H 6.52174 μM, Csubstrate = 2 mM
  1/Reaction rate: 1.979 min/E
CB-f-P-R-H 6.52174 μM, Csubstrate = 4 mM
  1/Reaction rate: 1.106 min/E
CB-f-P-R-H 8.15217 μM, Csubstrate = 0.5 mM
  1/Reaction rate: 8.377 min/E
CB-f-P-R-H 8.15217 μM, Csubstrate = 2 mM
  1/Reaction rate: 2.149 min/E
CB-f-P-R-H 8.15217 μM, Csubstrate = 4 mM
  1/Reaction rate: 1.173 min/E
CB-f-P-R-H 13.04348 μM, Csubstrate = 0.5 mM
  1/Reaction rate: 9.739 min/E
CB-f-P-R-H 13.04348 μM, Csubstrate = 2 mM
  1/Reaction rate: 2.499 min/E
CB-f-P-R-H 13.04348 μM, Csubstrate = 4 mM
  1/Reaction rate: 1.359 min/E
Csubstrate 0.5 mM
  Intersect of regression curve 1/reaction rate vs ligand concentration: 5.5934 min/E
  Slope of regression curve 1/reaction rate vs ligand concentration: 0.3216 min/E μM
Csubstrate 2 mM
  Intersect of regression curve 1/reaction rate vs ligand concentration: 1.4588 min/E
  Slope of regression curve 1/reaction rate vs ligand concentration: 0.0806 min/E μM
Csubstrate 4 mM
  Intersect of regression curve 1/reaction rate vs ligand concentration: 0.8202 min/E
  Slope of regression curve 1/reaction rate vs ligand concentration: 0.0421 min/E μM
Average of three Ki values, read-out: KiM average F Xa binding constant
  Ki: 16.9 µM
Intersection of regression curves Csubstrate 2 and 0.5 mM, read-out: Ki2&3 F Xa binding constant
  Ki: 17.2 µM
Intersection of regression curves Csubstrate 4 and 0.5 mM, read-out: Ki1&3 F Xa binding constant
  Ki: 17.1 µM
Intersection of regression curves Csubstrate 4 and 2 mM, read-out: Ki1&2 F Xa binding constant
  Ki: 16.6 µM
Intersections of regression curves not on the x axis
  binding of the peptide aldehyde with F Xa (reversible or irreversible): reversible
